Where two headings read alike, the source gives them in different places.
Target: T1, Equine serum BChE (butyrylcholinesterase) (Equus caballus, UniProt P81908)
T1 construct: commercial native enzyme from horse serum (Sigma); docking used human BChE 1P0P, not the assayed protein
Experiment: DTNB (Ellman-type) spectrophotometric assay, […] nm
Format: biochemical

T1 sequence (P81908 whole entry): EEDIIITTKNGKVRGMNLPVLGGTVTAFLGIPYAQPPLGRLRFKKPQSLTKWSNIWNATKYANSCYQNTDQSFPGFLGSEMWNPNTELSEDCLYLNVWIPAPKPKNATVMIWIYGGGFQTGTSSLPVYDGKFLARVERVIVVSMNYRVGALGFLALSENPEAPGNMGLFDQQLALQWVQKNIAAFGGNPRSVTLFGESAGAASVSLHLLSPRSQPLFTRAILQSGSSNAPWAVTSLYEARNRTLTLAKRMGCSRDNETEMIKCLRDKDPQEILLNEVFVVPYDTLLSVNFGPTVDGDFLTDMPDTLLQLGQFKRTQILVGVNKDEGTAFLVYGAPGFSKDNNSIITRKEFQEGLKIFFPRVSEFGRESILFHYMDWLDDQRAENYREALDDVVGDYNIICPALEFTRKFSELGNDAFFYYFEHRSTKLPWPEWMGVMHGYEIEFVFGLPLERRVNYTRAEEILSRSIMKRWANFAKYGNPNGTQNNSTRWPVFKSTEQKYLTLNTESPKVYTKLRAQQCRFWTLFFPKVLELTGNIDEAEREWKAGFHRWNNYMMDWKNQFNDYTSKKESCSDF

SMILES: C[C@]12C=CC(=O)C=C1CC[C@@H]1[C@@H]2CC[C@]2(C)C(=O)CC[C@@H]12 [compound 5, Androst-1,4-dien-3,17-dione]
- IC50: 11.8 ± 0.5 µM

SMILES: C[C@]12CCC(=O)C=C1CC[C@@H]1[C@@H]2[C@H](O)C[C@]2(C)C(=O)CC[C@@H]12 [compound 6, 11α-Hydroxyandrost-4-en-3,17-dione]
- IC50 (read-out: Mean ± SEM^ a [ μ M]): 20.5 ± 0.2 µM
